Where two headings read alike, the source gives them in different places.
Key:
[1] = rats
Experimental: Among them, group 4 was converted according to the clinical administration of 3 tablets, and the remaining experimental groups were converted according to the clinical administration of 4 tablets.
A single dose was administered to healthy SD rats, and blood was taken according to the blood collection plan. After sample processing, analysis, and data processing, the plasma concentration-time curves of each group were drawn respectively. The pharmacokinetic parameters of each group of medicines in rats was calculate by WinNonlin 6.1 software.

[2] = test system: SARS-CoV-2 (hCoV-19/China/CAS-B001/2020); experiment: Synergistic anti-SARS-CoV-2 activity (Example 4), CPE in Vero-E6 cells; format: cell-based; details: Severe acute respiratory syndrome coronavirus 2, Vero C1008; wild strain hCoV-19/China/CAS-B001/2020, Vero-E6, CPE after 72 hours
[3] = literature (Beerahee 1999; Alinia prescribing information); cited from earlier work
in vivo = format: in vitro ADME; details: plasma
From the text: In addition, due to the high plasma protein binding rate of atovaquone and nitazoxanide, both about 99% (refer to Beerahee M Clinical pharmacology of atovaquone and proguanil hydrochloride. [J]. Journal of Travel Medicine, 1999, 6 suppl 1:S13-7.; Alinia™ PRESCRIBING INFORMATION-FDA.). The present application also studied and compared the in vivo plasma protein binding rate of atovaquone and nitazoxanide combined administration and separate administration. […] Compared with alone administration, combined administration will not affect the distribution and elimination of the two drugs in vivo, and competition for plasma protein binding site by one drug will not result in an increase in the free form of another drug.

[4] = literature values; cited from earlier work
SARS-CoV-2 = details: anti-SARS-CoV-2, literature values; cited from earlier work
[5] = atovaquone combined with nitazoxanide, read-out: average plasma protein binding rate, combined administration group (converted)
[6] = separate administration, read-out: average plasma protein binding rate, separate administration group (converted)

SMILES | plasma concentration administered alone vs in combination, within 0.5-4 hours after administration ([1]; 13.9 mg/kg, group 3 vs group 5 and group 4) | exposure level (AUC0-24h) administered alone compared with combination at the same dose ([1]; single dose) | plasma concentration trend at 16-24 hours, administered alone ([1]; single dose) | plasma concentration trend at 16-24 hours, combined administration ([1]; single dose) | EC50 [2] [nM] | plasma protein binding rate [3] | fraction unbound (in vivo; [5]) | fraction unbound (in vivo; [6]) | plasma concentration administered alone vs in combination at the same dose ([1]; single dose 46.6 mg/kg, group 1 vs group 5) | Plasma concentration [4] [nM] | EC50 (SARS-CoV-2) [nM]
NC(=O)c1ncn([C@@H]2O[C@H](CO)[C@@H](O)[C@H]2O)n1 [RBV, 1-[(2R,3R,4S,5R)-3,4-dihydroxy-5-(hydroxymethyl)Oxolane-2-yl]-1H-1,2,4-triazole-3-carboxamide] | greater | slightly greater | – | – | – | – | – | – | – | – | –
O=C1C(O)=C([C@H]2CC[C@H](c3ccc(Cl)cc3)CC2)C(=O)c2ccccc21 [ATQ, 2-(trans-4-(4-chlorophenyl)cyclohexyl)-3-hydroxy-1,4-naphthalenedione] | – | similar | downward trend | flat or rising trend | 2040 | about 99% | 0.0014 | 0.0016 | – | – | –
CC(=O)Oc1ccccc1C(=O)Nc1ncc([N+](=O)[O-])s1 [NTZ, o-[N-(5-nitro-1,3-thiazol-2-yl)carbamoyl]phenol acetate] | – | – | – | – | 4900 | about 99% | 0.0016 | 0.0105 | no obvious difference | – | –
CC(C)C(=O)OC[C@H]1O[C@@H](n2ccc(NO)nc2=O)[C@H](O)[C@@H]1O [Molnupiravir] | – | – | – | – | – | – | – | – | – | 2090 | 320 to 2030

Source: US20240382510A1, “NEW COMBINATION DRUG FOR TREATING CORONAVIRUS INFECTIONS, PHARMACEUTICAL COMPOSITION AND USE THEREOF” (priority 2021, published 2024)
